According to article PMC3048208 (British Journal of Cancer, 2011):
Structures can show the parent of a compound that is named as a salt.

Tested on: patients with advanced solid tumours
Assay: Phase I safety: DLT and adverse events (CTCAE v3.0)
Settings: Grades 3/4
[1] = level 1, 10 mg 3 days every 2 weeks, 3 patients

Protocol: Study drug was administered at a starting dose of 10 mg on days 1–3 and 15–17 for the first dose level while for subsequent dose levels, treatment was administered on days 1–5 and 15–19, within a 28-day cycle. No intra-patient dose escalation was allowed. Dose escalation followed the standard 3+3 rule, but the protocol did allow up to four patients to be entered in the first stage of accrual at each dose level. The maximum administered dose was defined as the dose level at which ⩾2/3 or ⩾2/6 patients experienced dose-limiting toxicity (DLT). The next lower dose would normally be declared the RPTD for expansion to confirm the tolerability and PK and/or PD relationships at this dose level.
In cycle 1, patients were seen on days 1, 5, 8, 15, 19, 22 and weekly in subsequent cycles for laboratory studies and assessment of toxicity. […] In addition, troponin levels were obtained on days 1, 5, 15 in cycle 1 and on day 1 of subsequent cycles.
Patients who experienced any DLT were delayed by 1-week intervals until recovery and could continue on study drug with a reduction of one dose level. If no recovery occurred after a delay of 2 weeks from the next scheduled 5-day treatment, patients were discontinued from protocol treatment. In addition, patients must have an absolute neutrophil count of ⩾1.5 × 10^9 l^−1 and a platelet level of ⩾100 × 10^9 l^−1 before day 1 and 15 dosing.

CCCCc1nc2cc(/C=C/C(=O)NO)ccc2n1CCN(CC)CC [SB939, 3-[2-butyl-1-(2-diethylaminoethyl)-1H-benzoimidazol-5-yl]-N-hydroxyacrylami-hydrochloride]
Myositis, no. of patients [1]: 0
Nausea, no. of patients [1]: 0
Neutropenia, no. of patients [1]: 1
QT prolongation, no. of patients [1]: 0
Supra ventricular arrythmia, no. of patients [1]: 0
Syncope, no. of patients [1]: 0
Thrombocytopenia, no. of patients [1]: 0
Ventricular arrythmias (PVCs), no. of patients [1]: 0
Ventricular bigemini, no. of patients [1]: 0
Vomiting, no. of patients [1]: 0
ALT (raised), no. of patients (level 2, 10 mg, 6 patients): 0
AST (raised), no. of patients (level 2, 10 mg, 6 patients): 0
Abdominal pain, no. of patients (level 2, 10 mg, 6 patients): 0
Alkaline phophatase (raised), no. of patients (level 2, 10 mg, 6 patients): 1
Altered taste, no. of patients (level 2, 10 mg, 6 patients): 0
Anaemia, no. of patients (level 2, 10 mg, 6 patients): 0
Anorexia, no. of patients (level 2, 10 mg, 6 patients): 0
Bilirubin (raised), no. of patients (level 2, 10 mg, 6 patients): 0
CPK, no. of patients (level 2, 10 mg, 6 patients): 0
Cardiac arrythmia other, no. of patients (level 2, 10 mg, 6 patients): 0
Cardiac dysfunction, no. of patients (level 2, 10 mg, 6 patients): 0
Cardiac ischaemia, no. of patients (level 2, 10 mg, 6 patients): 0
Constipation, no. of patients (level 2, 10 mg, 6 patients): 0
Creatinine (raised), no. of patients (level 2, 10 mg, 6 patients): 0
Diarrhoea, no. of patients (level 2, 10 mg, 6 patients): 0
Fatigue, no. of patients (level 2, 10 mg, 6 patients): 0
Leukopenia, no. of patients (level 2, 10 mg, 6 patients): 0
Lymphopenia, no. of patients (level 2, 10 mg, 6 patients): 2
Mucositis, no. of patients (level 2, 10 mg, 6 patients): 0
Myositis, no. of patients (level 2, 10 mg, 6 patients): 0
Nausea, no. of patients (level 2, 10 mg, 6 patients): 0
Neutropenia, no. of patients (level 2, 10 mg, 6 patients): 0
QT prolongation, no. of patients (level 2, 10 mg, 6 patients): 0
Supra ventricular arrythmia, no. of patients (level 2, 10 mg, 6 patients): 0
Syncope, no. of patients (level 2, 10 mg, 6 patients): 0
Thrombocytopenia, no. of patients (level 2, 10 mg, 6 patients): 0
Ventricular arrythmias (PVCs), no. of patients (level 2, 10 mg, 6 patients): 0
Ventricular bigemini, no. of patients (level 2, 10 mg, 6 patients): 0
Vomiting, no. of patients (level 2, 10 mg, 6 patients): 0
ALT (raised), no. of patients (level 3, 20 mg, 6 patients): 0
AST (raised), no. of patients (level 3, 20 mg, 6 patients): 0
Abdominal pain, no. of patients (level 3, 20 mg, 6 patients): 0
Alkaline phophatase (raised), no. of patients (level 3, 20 mg, 6 patients): 1
Altered taste, no. of patients (level 3, 20 mg, 6 patients): 0
Anaemia, no. of patients (level 3, 20 mg, 6 patients): 1
Anorexia, no. of patients (level 3, 20 mg, 6 patients): 0
Bilirubin (raised), no. of patients (level 3, 20 mg, 6 patients): 0
CPK, no. of patients (level 3, 20 mg, 6 patients): 1
Cardiac arrythmia other, no. of patients (level 3, 20 mg, 6 patients): 0
Cardiac dysfunction, no. of patients (level 3, 20 mg, 6 patients): 0
Cardiac ischaemia, no. of patients (level 3, 20 mg, 6 patients): 0
Constipation, no. of patients (level 3, 20 mg, 6 patients): 0
Creatinine (raised), no. of patients (level 3, 20 mg, 6 patients): 0
Diarrhoea, no. of patients (level 3, 20 mg, 6 patients): 0
Fatigue, no. of patients (level 3, 20 mg, 6 patients): 0
Leukopenia, no. of patients (level 3, 20 mg, 6 patients): 0
Lymphopenia, no. of patients (level 3, 20 mg, 6 patients): 0
Mucositis, no. of patients (level 3, 20 mg, 6 patients): 0
Myositis, no. of patients (level 3, 20 mg, 6 patients): 1
Nausea, no. of patients (level 3, 20 mg, 6 patients): 0
Neutropenia, no. of patients (level 3, 20 mg, 6 patients): 0
QT prolongation, no. of patients (level 3, 20 mg, 6 patients): 0
Supra ventricular arrythmia, no. of patients (level 3, 20 mg, 6 patients): 0
Syncope, no. of patients (level 3, 20 mg, 6 patients): 1
Thrombocytopenia, no. of patients (level 3, 20 mg, 6 patients): 0
Ventricular arrythmias (PVCs), no. of patients (level 3, 20 mg, 6 patients): 0
Ventricular bigemini, no. of patients (level 3, 20 mg, 6 patients): 0
Vomiting, no. of patients (level 3, 20 mg, 6 patients): 0
ALT (raised), no. of patients (level 4, 30 mg, 4 patients): 0
AST (raised), no. of patients (level 4, 30 mg, 4 patients): 0
Abdominal pain, no. of patients (level 4, 30 mg, 4 patients): 0
Alkaline phophatase (raised), no. of patients (level 4, 30 mg, 4 patients): 0
Altered taste, no. of patients (level 4, 30 mg, 4 patients): 0
Anaemia, no. of patients (level 4, 30 mg, 4 patients): 0
Anorexia, no. of patients (level 4, 30 mg, 4 patients): 0
Bilirubin (raised), no. of patients (level 4, 30 mg, 4 patients): 0
CPK, no. of patients (level 4, 30 mg, 4 patients): 0
Cardiac arrythmia other, no. of patients (level 4, 30 mg, 4 patients): 0
Cardiac dysfunction, no. of patients (level 4, 30 mg, 4 patients): 0
Cardiac ischaemia, no. of patients (level 4, 30 mg, 4 patients): 0
Constipation, no. of patients (level 4, 30 mg, 4 patients): 0
Creatinine (raised), no. of patients (level 4, 30 mg, 4 patients): 0
Diarrhoea, no. of patients (level 4, 30 mg, 4 patients): 0
Fatigue, no. of patients (level 4, 30 mg, 4 patients): 0
Leukopenia, no. of patients (level 4, 30 mg, 4 patients): 0
Lymphopenia, no. of patients (level 4, 30 mg, 4 patients): 0
Mucositis, no. of patients (level 4, 30 mg, 4 patients): 0
Myositis, no. of patients (level 4, 30 mg, 4 patients): 0
Nausea, no. of patients (level 4, 30 mg, 4 patients): 0
Neutropenia, no. of patients (level 4, 30 mg, 4 patients): 0
QT prolongation, no. of patients (level 4, 30 mg, 4 patients): 0
Supra ventricular arrythmia, no. of patients (level 4, 30 mg, 4 patients): 0
Syncope, no. of patients (level 4, 30 mg, 4 patients): 0
Thrombocytopenia, no. of patients (level 4, 30 mg, 4 patients): 0
Ventricular arrythmias (PVCs), no. of patients (level 4, 30 mg, 4 patients): 0
Ventricular bigemini, no. of patients (level 4, 30 mg, 4 patients): 0
Vomiting, no. of patients (level 4, 30 mg, 4 patients): 0
ALT (raised), no. of patients (level 5, 50 mg, 4 patients): 0
AST (raised), no. of patients (level 5, 50 mg, 4 patients): 0
Abdominal pain, no. of patients (level 5, 50 mg, 4 patients): 0
Alkaline phophatase (raised), no. of patients (level 5, 50 mg, 4 patients): 0
Altered taste, no. of patients (level 5, 50 mg, 4 patients): 0
Anaemia, no. of patients (level 5, 50 mg, 4 patients): 0
Anorexia, no. of patients (level 5, 50 mg, 4 patients): 0
Bilirubin (raised), no. of patients (level 5, 50 mg, 4 patients): 0
CPK, no. of patients (level 5, 50 mg, 4 patients): 0
Cardiac arrythmia other, no. of patients (level 5, 50 mg, 4 patients): 0
Cardiac dysfunction, no. of patients (level 5, 50 mg, 4 patients): 0
Cardiac ischaemia, no. of patients (level 5, 50 mg, 4 patients): 0
Constipation, no. of patients (level 5, 50 mg, 4 patients): 0
Creatinine (raised), no. of patients (level 5, 50 mg, 4 patients): 0
Diarrhoea, no. of patients (level 5, 50 mg, 4 patients): 0
Fatigue, no. of patients (level 5, 50 mg, 4 patients): 0
Leukopenia, no. of patients (level 5, 50 mg, 4 patients): 0
Lymphopenia, no. of patients (level 5, 50 mg, 4 patients): 2
Mucositis, no. of patients (level 5, 50 mg, 4 patients): 0
Myositis, no. of patients (level 5, 50 mg, 4 patients): 0
Nausea, no. of patients (level 5, 50 mg, 4 patients): 0
Neutropenia, no. of patients (level 5, 50 mg, 4 patients): 0
QT prolongation, no. of patients (level 5, 50 mg, 4 patients): 0
Supra ventricular arrythmia, no. of patients (level 5, 50 mg, 4 patients): 0
Syncope, no. of patients (level 5, 50 mg, 4 patients): 0
Thrombocytopenia, no. of patients (level 5, 50 mg, 4 patients): 0
Ventricular arrythmias (PVCs), no. of patients (level 5, 50 mg, 4 patients): 0
Ventricular bigemini, no. of patients (level 5, 50 mg, 4 patients): 0
Vomiting, no. of patients (level 5, 50 mg, 4 patients): 0
ALT (raised), no. of patients (level 5.5, 60 mg, 7 patients): 2
